What was measured:
Format in all cases: cell-based
[1] = tested on: human gingival keratinocytes (Gie-No3-B11), P. gingivalis OMV; assay: Infection of human gingival keratinocytes by fluorescence-label P. gingivalis outer membrane vesicles (OMV); conditions: for inhibition at 100000 µM: concentration 100 mM
Procedure: (§1) One method to assess the potential of dicarboxylic acids to reduce gum disease and improve health was to assess the infection potential of gingival keratinocytes. In this model, human gingival keratinocytes (Gie-No3-B11, purchased from Creative Bioarray, Shirley, N.Y.) were maintained in a 37° C. incubator with 5% CO2. Cells were seeded in 100 μL cell suspension to each well (2K cells/well). Cells were treated 24 hours after seeding. Growth medium alone or growth medium with solvent vehicle was used as a negative control. Positive controls are either fluorescent E. coli LPS, or fluorescent S. minnesota LPS (https://corporate.thermofisher.com/us/en/index.html), fluorescence-label P. gingivalis outer membrane vesicles (OMV) with or without medium or solvent vehicle. P. gingivalis OMV was isolated following procedures described by Cecil et al. 2016 (Jessica D. Cecil, Neil M. O'Brien-Simpson, Jason C. Lenzo, James A. Holden, Yu-Yen Chen, William Singleton, Katelyn Gause, Yan Yan, Frank Caruso, and Eric C. Reynolds. Differential Responses of Pattern Recognition Receptors to Outer Membrane Vesicles of Three Periodontal Pathogens. iPLoS One. 2016; 11(4): e0151967). The OMV was stained with Lipophilic Tracer DiO following manufacturer's instruction (https://corporate.thermofisher.com/us/en/index.html). Compounds were dissolved in water and diluted in culture medium (all dilutions are deep yellow, or very acidic). All compounds and fluorescent LPS or OMV were added to cells at the same time. It is worth mentioning that cell culture medium changed immediately following adding the compounds from pink (pH7-7.4) to deep yellow (acidic). Images were taken in four sites in each well at a 3-hour interval over 48 to 120 hours in Incucyte® Live-Cell Analysis Systems (https://www.sartorius.com/en/products/live-cell-imaging-analysis/live-cell-analysis-instruments#id-789214). Data were processed and analyzed using R-programs.

[2] = tested on: human gingival keratinocytes (Gie-No3-B11), S. minnesota LPS; assay: Infection of human gingival keratinocytes by fluorescent S. minnesota LPS
Procedure: as §1

[3] = tested on: human gingival keratinocytes (Gie-No3-B11), E. coli LPS; assay: Infection of human gingival keratinocytes by fluorescent E. coli LPS
Procedure: as §1

[4] = Homo sapiens, Keratinocyte, concentration 11.11 mM
[5] = Homo sapiens, Keratinocyte, concentration 7.5 mM
[6] = Homo sapiens, Keratinocyte, concentration 5 mM
[7] = Homo sapiens, Keratinocyte, concentration 125 μM

**Q.** What does the source list for `O=C(O)CC(O)C(=O)O` (stereo not drawn) [DL_Maleic_acid]?
**A.** Inhibition % ([1]; concentration 11.11 mM): 62.2%; Inhibition % ([2]; concentration 7.5 mM): 59.9%; Inhibition % ([3]; concentration 5 mM): 36.3%

**Q.** Which results are given for `O=C(O)C(O)C(O)C(=O)O` (stereo not drawn) [DL_Tartaric_acid, DL tartaric acid]?
**A.** Inhibition % ([1]; concentration 1 mM): 57.7%; Inhibition % ([2]; concentration 1 mM): 26.4%

**Q.** With `CC(C)(C(=O)O)C(=O)O` [Dimethylmalonic_Acid, dimethylmalonic acid] as the compound, how does the inhibition at 11110 µM [1, 4] read?
**A.** 81.3%

**Q.** And the inhibition at 7500 µM [2, 5]?
**A.** 54.5%

**Q.** What about the inhibition at 5000 µM [3, 6] of the same compound?
**A.** 33.8%

**Q.** With `O=C(O)/C=C/C(=O)O` [Fumaric_acid, fumaric acid] as the compound, how does the inhibition at 33330 µM ([1]; Homo sapiens, Keratinocyte, concentration 33.33 mM) read?
**A.** 53.1%

**Q.** And the inhibition at 7500 µM [2, 5]?
**A.** 71.9%

**Q.** What about the inhibition at 7500 µM [3, 5] of the same compound?
**A.** 31%

**Q.** Which Inhibition % ([1]; concentration 2.5 mM) does the source give for `O=C(O)[C@H](O)[C@@H](O)C(=O)O` [L_+_Tartaric_acid, L-tartaric acid] here?
**A.** 73.6%

**Q.** What about the Inhibition % ([2]; concentration 10 mM) of the same compound?
**A.** 52.1%

**Q.** Which inhibition at 100000 µM ([1]; Homo sapiens, Keratinocyte) does the source give for `O=C(O)/C=C\C(=O)O` [Maleic_acid, maleic acid] here?
**A.** 83.3%

**Q.** What about the inhibition at 3000 µM ([2]; Homo sapiens, Keratinocyte, concentration 3 mM) of the same compound?
**A.** 73.8%

**Q.** What about the inhibition at 5000 µM [3, 6] of the same compound?
**A.** 63.8%

**Q.** What does the source list for `O=C(O)CC(=O)O` [Malonic_acid, malonic acid]?
**A.** inhibition at 11110 µM [1, 4]: 69.3%; inhibition at 5000 µM [3, 6]: 35.9%

**Q.** Which results are given for `CC(C(=O)O)C(=O)O` [Methyl_malonic_acid, methylmalonic acid]?
**A.** inhibition at 11110 µM [1, 4]: 63.6%; inhibition at 2500 µM ([2]; Homo sapiens, Keratinocyte, concentration 2.5 mM): 28.7%; inhibition at 5000 µM [3, 6]: 30.7%

**Q.** With `O=C(O)C(=O)O` [Oxalic_acid, oxalic acid] as the compound, how does the inhibition at 100000 µM ([1]; Homo sapiens, Keratinocyte) read?
**A.** 32.8%

**Q.** What about the inhibition at 125 µM [2, 7] of the same compound?
**A.** 22.5%

**Q.** What about the inhibition at 125 µM [3, 7] of the same compound?
**A.** 38.2%

**Q.** `O.O=C([O-])C(=O)[O-].[K+].[K+]` [Potassium_oxalate_monohydrate, Potassium Oxalate Monohydrate] was tested. Which Inhibition % ([2]; concentration 125 μM) did it give?
**A.** 41.5%

**Q.** And the Inhibition % ([3]; concentration 125 μM)?
**A.** 21.5%

**Q.** Which inhibition at 5000 µM [1, 6] does the source give for `O=C(O)C(=O)C(=O)O` [Sodium_mesoxalate_monohydrate, Sodium Mesoxalate Monohydrate] here?
**A.** 44.3%

**Q.** Which results are given for `O=C(O)CCC(=O)O` [Succinic_acid, succinic acid]?
**A.** inhibition at 2000 µM ([1]; Homo sapiens, Keratinocyte, concentration 2 mM): 73%; inhibition at 1000 µM ([2]; Homo sapiens, Keratinocyte, concentration 1 mM): 42.3%
